Measured values: the NIST ThermoML archive (doi:10.1021/acs.jced.8b00692)

Assay: xn = mol fraction of the nth substance listed
Conditions: 102 kPa, Liquid; for viscosity: Concentric cylinders viscometry; for speed of sound: Frequency=3 MHz, Single path-length method; for mass density: Vibrating tube method

CCCCCCCCCC1CCCCC1 [nonylcyclohexane] + CCCCCCCCCCCCCCCC
Conditions	mass density [kg/m3]	speed of sound [m/s]	viscosity [mPa·s]
293.15 K, x1 = 0.2005	781.15	1363.9	3.58
293.15 K, x1 = 0.4001	789.28	1371.3	3.72
293.15 K, x1 = 0.5002	793.52	1375.2	3.79
293.15 K, x1 = 0.5998	797.86	1379.1	3.89
293.15 K, x1 = 0.8002	806.91	1387.3	4.07
293.15 K, x1 = 1	816.41	1397.2	4.34
303.15 K, x1 = 0.2005	774.24	1326.7	2.84
303.15 K, x1 = 0.4001	782.39	1334.2	2.95
303.15 K, x1 = 0.5002	786.64	1338.1	3
303.15 K, x1 = 0.5998	790.99	1342	3.06
303.15 K, x1 = 0.8002	800.06	1350.2	3.2
303.15 K, x1 = 1	809.57	1359.6	3.39
313.15 K, x1 = 0.2005	767.33	1290.2	2.3
313.15 K, x1 = 0.4001	775.51	1297.7	2.38
313.15 K, x1 = 0.5002	779.77	1301.6	2.43
313.15 K, x1 = 0.5998	784.12	1305.6	2.47
313.15 K, x1 = 0.8002	793.21	1313.8	2.58
313.15 K, x1 = 1	802.74	1322.9	2.72
323.15 K, x1 = 0.2005	760.43	1254.4	1.9
323.15 K, x1 = 0.4001	768.63	1261.9	1.96
323.15 K, x1 = 0.5002	772.9	1265.8	2
323.15 K, x1 = 0.5998	777.25	1269.8	2.03
323.15 K, x1 = 0.8002	786.35	1278.1	2.12
323.15 K, x1 = 1	795.8	1287.1	2.22
333.15 K, x1 = 0.2005	753.54	1219.5	1.6
333.15 K, x1 = 0.4001	761.74	1226.9	1.65
333.15 K, x1 = 0.5002	766.02	1230.9	1.68
333.15 K, x1 = 0.5998	770.38	1234.9	1.7
333.15 K, x1 = 0.8002	779.49	1243.4	1.77
333.15 K, x1 = 1	789.05	1252.2	1.85
343.15 K, x1 = 0.2005	746.6	–	1.38
343.15 K, x1 = 0.4001	754.9	–	1.4
343.15 K, x1 = 0.5002	759.2	–	1.44
343.15 K, x1 = 0.5998	763.6	–	1.45
343.15 K, x1 = 0.8002	772.7	–	1.5
343.15 K, x1 = 1	782.2	–	1.57
353.15 K, x1 = 0.2005	739.7	–	1.18
353.15 K, x1 = 0.4001	748	–	1.21
353.15 K, x1 = 0.5002	752.3	–	1.23
353.15 K, x1 = 0.5998	756.8	–	1.25
353.15 K, x1 = 0.8002	765.8	–	1.3
353.15 K, x1 = 1	775.4	–	1.35
363.15 K, x1 = 0.2005	732.7	–	1.05
363.15 K, x1 = 0.4001	741.1	–	1.06
363.15 K, x1 = 0.5002	745.4	–	1.09
363.15 K, x1 = 0.5998	749.8	–	1.09
363.15 K, x1 = 0.8002	758.9	–	1.13
363.15 K, x1 = 1	768.5	–	1.2
373.15 K, x1 = 0.2005	725.7	–	0.908
373.15 K, x1 = 0.4001	734.2	–	0.931
373.15 K, x1 = 0.5002	738.5	–	0.944
373.15 K, x1 = 0.5998	742.9	–	0.96
373.15 K, x1 = 0.8002	752	–	1
373.15 K, x1 = 1	761.6	–	1.03
